Molecules are shown by their SMILES.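 These data come from cells grown in 96-well plates and exposed to compound for 48 hours at five concentrations. GI50 marks 50% less growth.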 Activity calls are given as the source filed them. Cut-off read from the data, not from the text of the source: active = GI50 up to about 1.1 µM and inactive = higher.

This note sets out measurements from ChEMBL document CHEMBL1201862, “PubChem BioAssay data set” (2004).

Among the test systems are KM-20L2; OVCAR-8; HCT-15; SK-OV-3; CCRF-CEM; TK-10; MOLT-4; OVCAR-3; OVCAR-5; CAKI-1; NCI-H522; SNB-75; HT-29; SF-539; SK-MEL-28; SNB-19; HCT-116; Hs-578T; BT-549; SR.
Common to all, as to assay: NCI tumour cell line growth inhibition, 48 h

Regarding `Cc1ccc(/C=C/C(=O)c2sc(-c3nc(C)c(C(=O)/C=C/c4ccc(C)cc4)s3)nc2C)cc1`, the GI50 with KM-20L2 is > 100 µM (inactive); in the experiment on OVCAR-8 it was > 100 µM (inactive); in the experiment on HCT-15 it was > 100 µM; with SK-OV-3, > 100 µM (inactive); in the experiment with CCRF-CEM, > 100 µM (inactive); in the experiment with TK-10 it was > 100 µM (inactive). For the same compound, the GI50 in the experiment on MOLT-4 was > 100 µM (inactive); in the experiment on OVCAR-3, > 100 µM (inactive); with OVCAR-5, > 100 µM (inactive); in the experiment with CAKI-1, > 100 µM (inactive); with NCI-H522 it was 97.5 µM (inactive); in the experiment with SNB-75, 86.5 µM (inactive). Moreover, the GI50 in the experiment with HT-29, in the experiment on SF-539 and in the experiment with SK-MEL-28 was > 100 µM (inactive) throughout.

As for `O=c1ncccn1C1C=C(CO)C(O)C1O` (centres undefined), the GI50 in the experiment with KM-20L2 is > 50 µM (inactive); in the experiment with HCT-15, > 50 µM; in the experiment on SK-OV-3, > 50 µM (inactive); with SNB-19 it was > 50 µM (inactive); with CCRF-CEM it was > 50 µM (inactive); in the experiment with TK-10, > 50 µM (inactive). Further, the GI50 in the experiment on MOLT-4, with OVCAR-3, with OVCAR-5, in the experiment on CAKI-1, in the experiment with NCI-H522 and with HT-29 was > 50 µM (inactive) throughout. In addition, the GI50 in the experiment on SF-539 and with SK-MEL-28 was > 50 µM (inactive) each time.

As to `O=C1c2ccccc2C(=O)C12CCc1ccccc12`, the GI50 with KM-20L2 is > 100 µM (inactive); with OVCAR-8 it was > 100 µM (inactive); in the experiment on HCT-15 it was > 100 µM; in the experiment on SK-OV-3 it was > 100 µM (inactive); with CCRF-CEM, > 100 µM (inactive); in the experiment with TK-10 it was > 100 µM (inactive). Also, the GI50 in the experiment with MOLT-4 was 4.18 µM (inactive); with OVCAR-3, > 100 µM (inactive); in the experiment on CAKI-1, > 100 µM (inactive); in the experiment on SNB-75 it was 40.3 µM (inactive); with HT-29, > 100 µM (inactive); with SK-MEL-28, > 100 µM (inactive).

Take `C[N+](C)(C)C(C1=CCCC1=O)c1ccccc1` (centres undefined): the GI50 in the experiment with OVCAR-8 is 25 µM (inactive); in the experiment on HCT-15 it was 20.2 µM; in the experiment with SK-OV-3 it was > 100 µM (inactive); with SNB-19, > 100 µM (inactive); in the experiment on HCT-116, 16.4 µM (inactive); in the experiment with Hs-578T, 33.4 µM (inactive). Further, the GI50 is 12.5 µM (inactive) with CCRF-CEM; 48.5 µM (inactive) in the experiment on TK-10; 24.1 µM (inactive) in the experiment with MOLT-4; 47.1 µM (inactive) in the experiment on OVCAR-3; > 100 µM (inactive) in the experiment with OVCAR-5; 24.5 µM (inactive) in the experiment on CAKI-1. Moreover, the GI50 was 18.7 µM (inactive) in the experiment with NCI-H522; 37.2 µM (inactive) with BT-549; 15.3 µM (inactive) in the experiment on SR; 52.8 µM (inactive) in the experiment on SNB-75; 23.5 µM (inactive) with HT-29; 54.5 µM (inactive) in the experiment on SF-539. In addition, in the experiment on SK-MEL-28, the GI50 is 30.3 µM (inactive).

For `CC1=NN(c2ccccc2)C(=O)/C1=C\c1ccc([N+](=O)[O-])cc1`, the GI50 in the experiment with KM-20L2 was 22.8 µM (inactive); in the experiment with OVCAR-8, 31.2 µM (inactive); in the experiment on HCT-15, 29.6 µM; with SK-OV-3, 24.1 µM (inactive); in the experiment with SNB-19, 30.5 µM (inactive); in the experiment on CCRF-CEM, 20.7 µM (inactive). In addition, the GI50 in the experiment with TK-10 is 48.8 µM (inactive); in the experiment on MOLT-4 it was 21.5 µM (inactive); with OVCAR-5, 24.5 µM (inactive); in the experiment with CAKI-1 it was 27.3 µM (inactive); in the experiment on NCI-H522 it was 21.8 µM (inactive); in the experiment with SNB-75, 25.5 µM (inactive). For the same compound, the GI50 with HT-29 was 28.3 µM (inactive); in the experiment on SF-539, 22.4 µM (inactive); in the experiment on SK-MEL-28, 36.6 µM (inactive).

On to `O=C1C(O)=C(CCCCCCCCC2CCCCC2)C(=O)c2ccccc21` [MENOCTONE], for which the GI50 is 8.67 µM (inactive) with OVCAR-8; 4.69 µM with HCT-15; 16.1 µM (inactive) with SK-OV-3; 9.86 µM (inactive) in the experiment on SNB-19; 3.33 µM (inactive) with HCT-116; 12.4 µM (inactive) in the experiment with Hs-578T. The GI50 in the experiment with CCRF-CEM is 2.72 µM (inactive); in the experiment on TK-10, 14.7 µM (inactive); in the experiment on MOLT-4 it was 2.58 µM (inactive); in the experiment on OVCAR-3 it was 10.7 µM (inactive); with OVCAR-5, 17 µM (inactive); with CAKI-1, 5.5 µM (inactive). Moreover, the GI50 with NCI-H522 is 6.24 µM (inactive); in the experiment with BT-549 it was 11.7 µM (inactive); with SR, 6.4 µM (inactive); in the experiment with SNB-75 it was 10.6 µM (inactive); in the experiment on HT-29, 12 µM (inactive); in the experiment with SF-539, 7.53 µM (inactive). For the same compound, the GI50 in the experiment on SK-MEL-28 was 11.4 µM (inactive).

`O=C(O)c1ccc2c(c1C(=O)O)C(=O)OC2(c1ccc(O)cc1)c1ccc(O)cc1`: the GI50 with OVCAR-8 is > 100 µM (inactive); with HCT-15, > 100 µM; with SK-OV-3 it was > 100 µM (inactive); with SNB-19, > 100 µM (inactive); with HCT-116, > 100 µM (inactive); in the experiment with Hs-578T, > 100 µM (inactive). In addition, the GI50 with CCRF-CEM, in the experiment on TK-10, in the experiment on MOLT-4, in the experiment with OVCAR-3, in the experiment with OVCAR-5 and in the experiment with CAKI-1 was > 100 µM (inactive) each time. Moreover, the GI50 in the experiment on NCI-H522, in the experiment on BT-549, in the experiment with SR, in the experiment on SNB-75, in the experiment on HT-29 and in the experiment on SF-539 was > 100 µM (inactive) throughout. Further, the GI50 in the experiment with SK-MEL-28 was > 100 µM (inactive).

Turning to `Cc1cc(N)ccc1C=O`, the GI50 with OVCAR-8 is > 100 µM (inactive); in the experiment on HCT-15, > 100 µM; in the experiment with SK-OV-3 it was > 100 µM (inactive); in the experiment with SNB-19, > 100 µM (inactive); in the experiment on HCT-116, > 100 µM (inactive); in the experiment on Hs-578T, > 100 µM (inactive). Also, the GI50 in the experiment with CCRF-CEM, in the experiment on TK-10, with MOLT-4, with OVCAR-3, with OVCAR-5 and in the experiment on CAKI-1 was > 100 µM (inactive) throughout. The GI50 in the experiment on NCI-H522, in the experiment on BT-549, in the experiment on SR, in the experiment on SNB-75, in the experiment on HT-29 and in the experiment with SF-539 was > 100 µM (inactive) throughout. Besides, the GI50 with SK-MEL-28 is > 100 µM (inactive).

Consider `CCN(Cc1cc(Cl)cc(C)c1O)Cc1c(O)ccc2ccccc12`, for which the GI50 with OVCAR-8 is 17.7 µM (inactive); in the experiment with HCT-15, 14.6 µM; in the experiment with SK-OV-3, 15.2 µM (inactive); with SNB-19, 18.5 µM (inactive); in the experiment with HCT-116, 16.7 µM (inactive); in the experiment with Hs-578T, 15.9 µM (inactive). The GI50 in the experiment on CCRF-CEM was 10.5 µM (inactive); in the experiment with TK-10 it was 17.1 µM (inactive); in the experiment on MOLT-4, 5.36 µM (inactive); in the experiment with OVCAR-3, 15 µM (inactive); in the experiment on OVCAR-5, 17.6 µM (inactive); with CAKI-1, 15.3 µM (inactive). Besides, the GI50 in the experiment with NCI-H522 was 11.2 µM (inactive); in the experiment with BT-549, 13.3 µM (inactive); in the experiment with SR, 16.2 µM (inactive); in the experiment on SNB-75, 11.7 µM (inactive); with HT-29, 12.9 µM (inactive); in the experiment with SF-539, 13.3 µM (inactive). For the same compound, the GI50 with SK-MEL-28 was 17.9 µM (inactive).

For `CCOC(=O)/C=C(/C(=O)OCC)n1ccc(=O)n(Cc2cn(COCCOC(C)=O)nn2)c1=O`, the GI50 in the experiment with OVCAR-8 was 16.4 µM (inactive); with HCT-15, 20.3 µM; in the experiment with SK-OV-3, > 100 µM (inactive); with SNB-19, 70.5 µM (inactive); with HCT-116, 31.6 µM (inactive); in the experiment with Hs-578T, 26.4 µM (inactive). For the same compound, the GI50 in the experiment with CCRF-CEM is 2.14 µM (inactive); with TK-10, 16.8 µM (inactive); in the experiment on MOLT-4 it was 17.3 µM (inactive); in the experiment with OVCAR-3 it was 17.8 µM (inactive); in the experiment with OVCAR-5, 20.1 µM (inactive); in the experiment with CAKI-1, 4.74 µM (inactive). In addition, the GI50 is 4.54 µM (inactive) with NCI-H522; 16.4 µM (inactive) in the experiment with BT-549; 19.4 µM (inactive) in the experiment on SR; 33 µM (inactive) in the experiment with SNB-75; 18.1 µM (inactive) with HT-29; 20.3 µM (inactive) in the experiment on SF-539. Further, the GI50 in the experiment on SK-MEL-28 was 16.3 µM (inactive).

As for `CCOC(=O)CN1CCNCCN(CC(=O)OCC)CCNCC1`, the GI50 with OVCAR-8 was > 100 µM (inactive); in the experiment with HCT-15 it was > 100 µM; in the experiment with SK-OV-3, > 100 µM (inactive); in the experiment with SNB-19, > 100 µM (inactive); in the experiment on HCT-116 it was > 100 µM (inactive); in the experiment on Hs-578T, > 100 µM (inactive). Also, the GI50 in the experiment with CCRF-CEM, with TK-10, with MOLT-4, with OVCAR-3, with OVCAR-5 and with CAKI-1 was > 100 µM (inactive) in each case. The GI50 is > 100 µM (inactive) with NCI-H522; > 100 µM (inactive) with BT-549; 78.7 µM (inactive) with SR; > 100 µM (inactive) in the experiment with SNB-75; 55.3 µM (inactive) in the experiment with HT-29; > 100 µM (inactive) in the experiment on SF-539. For the same compound, the GI50 in the experiment with SK-MEL-28 is > 100 µM (inactive).

Take `O=C(CSc1nnc(Cc2ccccc2)o1)Nc1ccccc1`: the GI50 in the experiment with KM-20L2 was > 100 µM (inactive); in the experiment with OVCAR-8, > 100 µM (inactive); in the experiment with HCT-15 it was > 100 µM; with SK-OV-3 it was > 100 µM (inactive); in the experiment on HCT-116, > 100 µM (inactive); in the experiment on CCRF-CEM, > 100 µM (inactive). For the same compound, the GI50 in the experiment on TK-10, in the experiment on MOLT-4, with OVCAR-3, with OVCAR-5, in the experiment with NCI-H522 and in the experiment with SNB-75 was > 100 µM (inactive) each time. Further, the GI50 in the experiment on HT-29, in the experiment with SF-539 and with SK-MEL-28 was > 100 µM (inactive) in each case.
